Measured values taken from PMC6321484, “Deep Eutectic Solvent-Based Ultrahigh Pressure Extraction of Baicalin from Scutellaria baicalensis Georgi” (Molecules, 2018).
≈ marks a conversion by molar mass, not a printed value.

Test: Equilibrium solubility of baicalin in different solvents (excess compound, HPLC)
Assay type: physicochemical
Conditions: for Solubility of Baicalin: excess compound stirred at 40 °C for 2 h, HPLC
Procedure: Solubility tests were carried out using distilled water, 70% ethanol and DESs with an excess of the tested compound in a capped bottle and stirred at 40 °C for 2 h. The resulting mixture containing undissolved solid compounds were centrifuged. The supernatant was transferred to a 5 mL-microtube, diluted with methanol and vortexed to a homogeneous solution. The concentration of baicalin in the solution was monitored by HPLC. All solubility tests were performed in triplicate.

## O=C(O)[C@H]1O[C@@H](Oc2cc3oc(-c4ccccc4)cc(=O)c3c(O)c2O)[C@H](O)[C@@H](O)[C@@H]1O [baicalin]
40 °C, organic solvent or mixture, thermodynamic from solid, solvent: DES-1, room temperature
  solubility thermodynamic at 2 h: 22.7 mg/mL (≈ 50.9 mM)
solvent: 70% Ethanol
  Solubility of Baicalin: 1.85 mg/g
solvent: DES-1 (ChCl-lactic acid 1:1)
  Solubility of Baicalin: 22.7 mg/g
solvent: DES-2 (ChCl-glucose 1:1)
  Solubility of Baicalin: 18.2 mg/g
solvent: DES-3 (ChCl-glycerol 1:1)
  Solubility of Baicalin: 12.35 mg/g
solvent: DES-4 (ChCl-1,4-butanediol 1:1)
  Solubility of Baicalin: 2.25 mg/g
solvent: DES-5 (ChCl-ethylene glycol 1:1)
  Solubility of Baicalin: 17.8 mg/g
solvent: Water
  Solubility of Baicalin: 0.18 mg/g
